Measured values from patent US20250262228A1, “TREATMENT OF SPASTICITY AND PAIN IN RENALLY-IMPAIRED PATIENTS” (Jazz Pharmaceuticals Research UK Limited., priority 2022, published 2025).

Columns and labels:
[1] = for Cmax, Geometric LS Mean Ratio (Severe RI/Normal), Estimate / AUClast, Geometric LS Mean Ratio (Severe RI/Normal), Estimate: plasma, mixed model; for Cmax, Geometric LS Mean Ratio (Severe RI/Normal), Estimate / AUClast, Geometric LS Mean Ratio (Severe RI/Normal), Estimate / increase in AUClast in severe renal impairment versus normal renal function / AUC0-tlast Fold Change from Normal / increase in AUC in the renally impaired group compared to the normal group / mean plasma concentrations over time in renally impaired participants versus normal: 4 sprays; for AUClast, Geometric LS Mean Ratio (Severe RI/Normal), Estimate: significant when ratio >=2.0 plus 90% CI outside 0.5-2.0; for elimination in patients with renal impairment: renally impaired vs normal, after oromucosal spray; for increase in AUClast in severe renal impairment versus normal renal function / increase in AUC in the renally impaired group compared to the normal group: severe renal impairment vs normal, oromucosal spray; for AUC0-tlast Fold Change from Normal / mean plasma concentrations over time in renally impaired participants versus normal: severe renal impairment; for mean plasma concentrations over time in renally impaired participants versus normal: FIGS. 1-4
From the text: Rationale: To date, no studies of administering the disclosed oromucosal spray in patients with varying degrees of renal impairment have been conducted. The present trial investigated the effects of the oromucosal spray in subjects with severe renal impairment. The principal aim of this trial was to assess the pharmacokinetic (PK) parameters following oromucosal administration in patients with severe renal impairment and individually matched healthy participants (i.e., otherwise identical patients with normal renal function).
Primary Objectives: Evaluated and compared the PK parameters of the oromucosal spray in participants with severe renal impairment or End-Stage Renal Disease (ESRD) to the PK profile in matched participants with normal renal function.
Primary Endpoints: The PK parameters, derived from the plasma concentration-time (Cmax) and area under the concentration-time curve calculated to the last concentration at time t (AUC0-t), or 48 hours (AUC0-48), for THC, CBD, and metabolites of THC and CBD (e.g., 11-OH-THC and 7-COOH-CBD).
The 4 sprays administered a total of 10.8 mg THC and 10 mg CBD. The duration of the trial was approximately 45 days, which included a screening period (up to 4 weeks), a treatment period (48 hours) and a safety follow-up period (2 weeks). Screening was performed within 28 to 2 days before dosing, and the assessments included measurement of serum creatinine to assess the eGFR as determined by the modification of diet in renal disease formula (MDRD) to verify initial participant eligibility for trial participation. Participants entered the screening period (Day −28 to −1). From Day −1, screened participants who continued to meet eligibility criteria were admitted to the clinical research facility and placed under observation continually from dosing until 48 hours postdose. […] On Day 1, participants received 4 sprays of the oromucosal spray.
Formulation Mode of Administration, Dose, and Regimen: The oromucosal spray was formulated as a mixture of THC and CBD extracts derived from Cannabis sativa L. The formulation contains THC and CBD as the most abundant cannabinoid constituents and also contains minor constituents including related cannabinoids and non-cannabinoid plant components, such as terpenes, sterols, and triglycerides. The spray contains 27 mg/mL of THC and 25 mg/mL of CBD dissolved in the excipients (e.g., ethanol and propylene glycol). Each spray delivers 100 μL containing 2.7 mg of THC and 2.5 mg of CBD.
Procedures: PK samplings were taken as close as to the nominal time point. Participants fasted overnight for at least 10 hours prior to the administration and for at least 4 hours thereafter. Standardized meals and beverages were provided at approximately 4 hours and 9 hours after dosing. With the exception of the water administered at the time of dosing, water was not permitted from 1 hour before until 1 hour after dosing. […] Cannabis or use of anticonvulsants, antidepressants, antipsychotic and anxiolytic medications were not allowed throughout the trial. Alcohol, nicotine products, and consuming food or beverages containing methylxanthines (caffeinated food or beverages) were prohibited for 24 hours prior to each visit and throughout the inpatient period.

[2] = renally impaired patients administered highly purified CBD; cited from earlier work

SMILES	Cmax, Geometric LS Mean Ratio (Severe RI/Normal), Estimate [1]	AUClast, Geometric LS Mean Ratio (Severe RI/Normal), Estimate [1]	elimination in patients with renal impairment [1]	increase in AUClast in severe renal impairment versus normal renal function [1]	AUC0-tlast Fold Change from Normal [1] [fold]	increase in AUC in the renally impaired group compared to the normal group [1] [fold]	mean plasma concentrations over time in renally impaired participants versus normal [1]	clinically relevant elevations of CBD, 7-OH-CBD and 7-COOH-CBD (mean AUClast ratios greater than 2 between the renally impaired and the control) [2]
C=C(C)[C@@H]1CCC(C(=O)O)=C[C@H]1c1c(O)cc(CCCCC)cc1O [7-COOH-CBD]	1.4	1.92	relatively unchanged	< 2 fold	1.92			
C=C(C)[C@@H]1CCC(CO)=C[C@H]1c1c(O)cc(CCCCC)cc1O [7-OH-CBD]	1.89	4.59	clinically significant prolonged elimination	approximately 3 fold	4.59	4.59		
CCCCCc1cc(O)c2c(c1)OC(C)(C)[C@@H]1CCC(C(=O)O)=C[C@@H]21 [11-COOH-THC]	1.15	1.26	relatively unchanged		1.26			
CCCCCc1cc(O)c2c(c1)OC(C)(C)[C@@H]1CCC(CO)=C[C@@H]21 [11-OH-THC]	2.13	3.18	clinically significant prolonged elimination		3.18	3.18	Much higher	
C=C(C)[C@@H]1CCC(C)=C[C@H]1c1c(O)cc(CCCCC)cc1O [CBD, Cannabidiol, reference compound]	1.11	1.95	relatively unchanged		1.95		elevated	
CCCCCc1cc(O)c2c(c1)OC(C)(C)[C@@H]1CCC(C)=C[C@@H]21 [THC, Δ-9-tetrahydrocannabinol, reference compound]	0.8	1.34	relatively unchanged		1.34		elevated	
C=C(C)[C@@H]1CCC(C)=C[C@H]1c1c(O)cc(CCCCC)cc1O [highly purified form of CBD]								not observed
